The record followed here is publication PMC7768359, “Synthesis of Platinum(II) Complexes with Some 1-Methylnitropyrazoles and In Vitro Research on Their Cytotoxic Activity” (Pharmaceuticals, 2020).

One series has as its system MCF-7 cells. Kind of series: Total cellular platinum uptake (ICP OES). The class given is cell-based, human. Conditions: MCF-7, 4 h exposure, 10 µM. The procedure: It is necessary to strongly emphasize that the underlined values have a statistically significant lack of variance homogeneity (Fisher–Snedecor’s F-test, Fα/2) with respect to reference drug variance, so Aspin–Welch’s t-test was applied in these cases. […] For ionic compound 8, platinum uptake value was not determined due to Pt concentrations in the cell lysates being below the instrument detection limit (IDL = 10 μg/kg) specified by the manufacturer for the device used.
Cultured MCF-7 cells were seeded at a density of 4 × 10^5 cells/well of culture medium on a 6-well plate (Corning, NY, USA) to a final volume of 2.5 mL. […] The wells without MCF-7 cells were filled with 1 mL of culture medium-containing compound tested to act as a reference for nonspecific platinum complex adsorption on the surface of the well. After incubation, all wells were washed twice with 2 mL of cold PBS, filled with 400 μL of hot (ca 90 °C) 65% nitric acid, and maintained to stand for 2 h. All wells were finally filled with 1600 μL of water and this solution was collected and analyzed using iCAP 7400 Duo ICP OES instrument (Thermo Fisher Scientific) using the plasma axial view (10 s) at λ = 265.945 nm. The amount of Pt per cell was calculated by subtracting the amount of Pt found in the blank well from the amount of Pt found in the cell-containing wells and normalized to the average number of cells per well. The mean and SD values were calculated on the basis of 4 measurements.

Series [1] is described as follows: logP by shake-flask method (n-octanol / 0.9% NaCl, Pt by ICP-OES). The format is physicochemical. Conditions: octanol/water, n = 4. Here is the method: An important factor for the pharmacokinetics and the cellular accumulation of the investigated complexes, their lipophilicity was determined by measuring octanol/water partition coefficients (logP) with the shake-flask method. The logP determination was carried out based on a previously described procedure, modified by us to obtain more accurate and repeatable results.
Weighted amounts of the tested platinum complex were suspended by 10 min sonification in 0.9% NaCl water solution, which was previously saturated with n-octanol, and mixed by shaking for 1 h. A simultaneously similar procedure was performed using 5 mL of n-octanol pre-saturated with 0.9% NaCl. Afterward, both suspensions were mixed together, shaken for an additional 1 h, and centrifuged for 5 min. After phase separation and evaporation in vacuo of 1 mL of sample to dryness, the final concentration of Pt was determined by ICP-OES (λ = 265.945 nm) and the partition coefficients were calculated. For the analysis, all samples were dissolved 1:1000 in 2.5% HCl. Each measurement was repeated four times and the final logP was calculated as the arithmetic mean of the four values.

In series [2] the test system is ES-2 (ovarian adenocarcinoma). Kind of series: In vitro cytotoxicity, sulforhodamine B assay. The class given is cell-based, human. Conditions: 72 h. The procedure: (§1) Determination of the cytotoxic activity of compounds tested was performed separately in the normoxia or hypoxia conditions to reveal their potentially bioreductive properties. The experiment was carried out on three human cancer cell lines: MCF-7 breast, ES-2 ovarian and A549 lung adenocarcinoma as well as normal murine embryonic fibroblast BALB/3T3 cell line. In order to facilitate the preparation of solutions of the tested compounds, their initial solutions for dilution were made by dissolving the compounds in acetone. For this purpose, it was not possible to use more polar aprotic solvents (DMSO, DMF) due to the rapid isomerization of some of the tested complexes under their influence.
(§2) All the cell lines were cultured at 37 °C in a humid atmosphere containing 5% CO2. Additionally, in the case of cytotoxicity assay with hypoxic conditions, the cells (MCF-7, ES-2, A549) were maintained at 37 °C in a humid atmosphere containing 5% CO2 and 1% O2 during the entire experiment.
(§3) Twenty-four hours before adding the tested compounds, all cell lines were seeded in 96-well plates ([…] AG & Co, Nümbrecht Germany) in an appropriate media with 10^4 cells per well. All cell lines were exposed to each compound tested at four different concentrations for 72 h. […] Additionally, all cell lines were exposed to acetone (Avantor Performance Materials, Gliwice, Poland) (the solvent used for tested compounds) at concentrations corresponding to those present in tested compounds’ dilutions.
(§4) After 72 h of cell incubation with the compounds tested, the sulforhodamine B (SRB) assay was performed as described by Shekan et al. with minor modifications. The cells were fixed in situ by adding 50 µL per well of cold 50% trichloroacetic acid (Avantor Performance Materials, Gliwice, Poland) and were incubated at 4 °C for one hour. Following that, wells were washed five times with water and air dried. Next, 50 µL of 0.4% solution of sulforhodamine B (Sigma-Aldrich, Steinheim, Germany) in 1% acetic acid (Avantor Performance Materials, Gliwice, Poland) were added to each well and plates were incubated at room temperature for 0.5 h. After incubation time, the unbound dye was removed by washing plates five times with 1% acetic acid, whereas stains bound to cells was solubilized with 10 mM Tris base (Sigma-Aldrich, Steinheim, Germany). The absorbance of each solution was read by the Multiskan RC photometer (Labsystems Diagnostics Oy, Vantaa, Finland) at a 540 nm wavelength. Results are presented as mean IC50 (concentration of the compound tested that inhibits cell proliferation by 50%) ± standard deviation. IC50 values were calculated for each experiment on the basis of four different concentrations using Cheburator software, as described by Nevozhay. The tested compounds at each concentration were tested in triplicates in a single experiment and each experiment was repeated at least three times independently.
(In general: The SRB assay estimates cell density from bound dye.)

Series [3] relates to A549 (lung adenocarcinoma). In words: In vitro cytotoxicity, sulforhodamine B assay. The format is cell-based, human. Conditions: for IC50 / IC50 ± SD: 72 h. The procedure:
as §1, §2, §3, §4

Series [4] has as its system MCF-7 (breast adenocarcinoma). In words: In vitro cytotoxicity, sulforhodamine B assay. The class given is cell-based, human. As to conditions: for growth inhibition stronger than reference cisplatin (factor): MCF-7. The procedure: as §1, §2, §3, §4

Take `Cn1cc([N+](=O)[O-])c[n+]1[Pt@SP3-2]([Cl])([Cl])[n+]1cc([N+](=O)[O-])cn1C` [Compound 2, trans-dichloridobis(1-methyl-4-nitropyrazole)platinum(II)]: in the series with MCF-7 cells, the “Total Cellular Platinum Uptake in MCF-7 Cells (± SD)” value was determined as 32 ± 6 ng Pt/10^6 Cells. Further, the “logP ± SD” value in series [1] is recorded as 1.43 ± 0.16,. In addition, the IC50 (commonly the concentration at which inhibition is half-maximal) in series [2] (ES-2, hypoxia (1% O2)) turned out to be 1.1 ± 0.3 µM; in series [2] (ES-2, normoxia) it was 0.7 ± 0.7 µM; in series [3] (A549, hypoxia (1% O2)), 7.7 ± 7.4 µM; in series [3] (A549, normoxia), 3.7 ± 2.9 µM; in series [4] (MCF-7, hypoxia (1% O2), 72 h), 11.1 ± 5.6 µM; in series [4] (MCF-7, normoxia, 72 h), 1.8 ± 0.9 µM. In addition, in series [3] (A549), the “effect stronger than reference cisplatin (times)” value is listed as 2.6 times. Moreover, the “growth inhibition stronger than reference cisplatin (factor)” value in series [4] is reported as “about seven times”.
For `Cn1c([N+](=O)[O-])cc[n+]1[Pt@SP3-2]([Cl])([Cl])[n+]1ccc([N+](=O)[O-])n1C` [Compound 4, trans-dichloridobis(1-methyl-5-nitropyrazole)platinum(II)], the “Total Cellular Platinum Uptake in MCF-7 Cells (± SD)” value in the series with MCF-7 cells was determined as 83 ± 12 ng Pt/10^6 Cells. The “logP ± SD” value in series [1] is reported as 0.46 ± 0.00. Moreover, the IC50 in series [2] (ES-2, hypoxia (1% O2)) came out at 32.3 ± 27 µM; in series [2] (ES-2, normoxia) it was 41.1 ± 7.1 µM; in series [3] (A549, normoxia) it was 31 ± 9.5 µM; in series [4] (MCF-7, hypoxia (1% O2), 72 h), 32 ± 9.2 µM; in series [4] (MCF-7, normoxia, 72 h), 7.8 ± 1.3 µM. The “IC50 ± SD” value in series [3] (A549, hypoxia (1% O2)) is “inactive”. Besides, the “growth inhibition stronger than reference cisplatin (factor)” value in series [4] is given as “almost two times”.
As for `Cn1cc([N+](=O)[O-])c[n+]1[Pt@SP2-2]([Cl])([Cl])[n+]1cc([N+](=O)[O-])cn1C` [Compound 1, cis-dichloridobis(1-methyl-4-nitropyrazole)platinum(II)], the “Total Cellular Platinum Uptake in MCF-7 Cells (± SD)” value in the series with MCF-7 cells was 27 ± 6 ng Pt/10^6 Cells. Besides, the “logP ± SD” value in series [1] was −0.35 ± 0.04. In addition, the IC50 in series [2] (ES-2, hypoxia (1% O2)) is 109 ± 22.6 µM; in series [2] (ES-2, normoxia) it was 29.4 ± 24.9 µM; in series [3] (A549, normoxia), 103 ± 28.8 µM; in series [4] (MCF-7, normoxia, 72 h), 74.7 ± 36.1 µM. Besides, the “IC50 ± SD” value in series [3] (A549, hypoxia (1% O2)) is “inactive”; in series [4] (MCF-7, hypoxia (1% O2), 72 h) it was “inactive”.
As to `Cn1c([N+](=O)[O-])cc[n+]1[Pt@SP2-2]([Cl])([Cl])[n+]1ccc([N+](=O)[O-])n1C` [Compound 3, cis-dichloridobis(1-methyl-5-nitropyrazole)platinum(II)], the “Total Cellular Platinum Uptake in MCF-7 Cells (± SD)” value in the series with MCF-7 cells amounted to 82 ± 11 ng Pt/10^6 Cells. Further, in series [1], the “logP ± SD” value is given as −0.31 ± 0.04. The IC50 in series [2] (ES-2, hypoxia (1% O2)) came out at 51.9 ± 16.7 µM; in series [2] (ES-2, normoxia), 75.4 ± 12.3 µM; in series [3] (A549, normoxia) it was 53.4 ± 10 µM; in series [4] (MCF-7, hypoxia (1% O2), 72 h), 41.5 ± 39.9 µM; in series [4] (MCF-7, normoxia, 72 h), 10.1 ± 1.4 µM. Moreover, in series [3] (A549, hypoxia (1% O2)), the “IC50 ± SD” value was “inactive”.
